Counter-ions that a name gives are not always drawn.

The test deals with T1, human MDM2 (GST-hMDM2 1-188), interaction with biotinylated-p53 (1-83) (Homo sapiens, UniProt Q00987).
T1 construct: Amino acid residues 1-188 of human MDM2 were expressed; made in house; host or cells: Escherichia coli
T1 sequence (Q00987 1-188): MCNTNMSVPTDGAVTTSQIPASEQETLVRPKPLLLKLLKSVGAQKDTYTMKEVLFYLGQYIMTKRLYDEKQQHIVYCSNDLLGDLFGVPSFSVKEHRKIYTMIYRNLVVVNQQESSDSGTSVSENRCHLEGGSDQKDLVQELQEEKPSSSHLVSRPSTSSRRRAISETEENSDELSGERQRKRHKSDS
Description: improved HTRF assay (HTRF2 assay), inhibition of HDM2-p53 interaction. The conditions noted are these: 0.2 nM GST-hMDM2, 0.5 nM biotinylated-p53, 100 mM KF. The format is binding. As for the experimental part:
Residues 1-83 of human p53 were expressed as an amino-terminal AviTag™-TrxA-6xHis fusion protein (biotinylated p53) in E. coli. Each protein was purified from cell paste by affinity chromatography.
Specifically, 10 uL of GST-hMDM2 was incubated with 10 ul of diluted compound (various concentrations, serially diluted) in 10% DMSO for 20 minutes at room temperature. 20 uL of biotinylated-p53 was added to the GST-hMDM2+ compound mixture, and then incubated at room temperature for 60 min. 10 uL of detection buffer consisting of SA-XLent, anti-GST cryptate antibody and KF was added to GST-hMDM2, biotinylated-p53 and compound reaction and left at room temperature to reach equilibrium for >4 hrs. The final concentration of DMSO in the reaction was 2%. Time-resolved fluorescence readings were measured on a microplate multilabel reader. Percentage of inhibition was calculated relative to nutlin-3.
In general terms: TR-FRET usually uses a lanthanide donor and a delayed reading to cut background.
What is called IC50 is the concentration at which inhibition is half-maximal. With “2-((2R,5R,6R)-6-(3-Chlorophenyl)-5-(4-chlorophenyl)-4-((3S,5R)-5-hydroxyhexan-3-yl)-3-oxomorpholin-2-yl)acetic acid or 2-((2R,5R,6R)-6-(3-Chlorophenyl)-5-(4-chlorophenyl)-4-((3S,5S)-5-hydroxyhexan-3-yl)-3-oxomorpholin-2-yl)acetic acid [Example 127]”, the IC50 amounted to 34 nM. This counts as double-digit nanomolar.
In the case of “2-((2R,5R,6R)-6-(3-Chlorophenyl)-5-(4-chlorophenyl)-4-((3S,5S)-5-hydroxyhexan-3-yl)-3-oxomorpholin-2-yl)acetic acid or 2-((2R,5R,6R)-6-(3-Chlorophenyl)-5-(4-chlorophenyl)-4-((3S,5R)-5-hydroxyhexan-3-yl)-3-oxomorpholin-2-yl)acetic acid [Example 126]” it was 61 nM.
The compound “2-((2R,5R,6R)-6-(3-chlorophenyl)-5-(4-chlorophenyl)-4-((S)-1-(N-(2-cyanophenyl)cyclopropanesulfonamido)butan-2-yl)-3-oxomorpholin-2-yl)acetic acid or 2-((2S,5R,6R)-6-(3-chlorophenyl)-5-(4-chlorophenyl)-4-((S)-1-(N-(2-cyanophenyl)cyclopropanesulfonamido)butan-2-yl)-3-oxomorpholin-2-yl)acetic acid [Example 206]” yielded an IC50 of 145 nM.
Consider “2-((2R,5R,6R)-6-(3-chlorophenyl)-5-(4-chlorophenyl)-4-((S)-1-(N-(2-cyanophenyl)cyclopropanesulfonamido)butan-2-yl)-3-oxomorpholin-2-yl)acetic acid or 2-((2S,5R,6R)-6-(3-chlorophenyl)-5-(4-chlorophenyl)-4-((S)-1-(N-(2-cyanophenyl)cyclopropanesulfonamido)butan-2-yl)-3-oxomorpholin-2-yl)acetic acid [Example 207]”, for which the IC50 was under 1 nM.
In the case of “2-((2R,5R,6R)-6-(3-chlorophenyl)-5-(4-chlorophenyl)-4-((S)-1-(N-(2-fluorophenyl)cyclopropanesulfonamido)-3-methylbutan-2-yl)-3-oxomorpholin-2-yl)acetic acid or 2-((2S,5R,6R)-6-(3-chlorophenyl)-5-(4-chlorophenyl)-4-((S)-1-(N-(2-fluorophenyl)cyclopropane sulfonamido)-3-methylbutan-2-yl)-3-oxomorpholin-2-yl)acetic acid [Example 196]”, the IC50 is 1 nM.
In the case of `CC(C)(C)S(=O)(=O)C[C@H](C1CC1)N1C(=O)[C@@H](CC(=O)O)O[C@H](c2cccc(Cl)c2F)[C@H]1c1ccc(Cl)cc1.CC(C)(C)S(=O)(=O)C[C@H](C1CC1)N1C(=O)[C@H](CC(=O)O)O[C@H](c2cccc(Cl)c2F)[C@H]1c1ccc(Cl)cc1` (mixture of isomers) [Example 326, 2-((2R,5R,6R)-4-((S)-2-(tert-Butylsulfonyl)-1-cyclopropylethyl)-6-(3-chloro-2-fluorophenyl)-5-(4-chlorophenyl)-3-oxomorpholin-2-yl)acetic acid and 2-((2S,5R,6R)-4-((S)-2-(tert-butylsulfonyl)-1-cyclopropylethyl)-6-(3-chloro-2-fluorophenyl)-5-(4-chlorophenyl)-3-oxomorpholin-2-yl)acetic acid] it was under 1 nM; in that of `CC[C@@H](CS(=O)(=O)C(C)(C)C)N1C(=O)C(CN)O[C@H](c2cccc(Cl)c2)[C@H]1c1ccc(Cl)cc1` (mixture of isomers) [Example 378, (2R,5R,6R)-2-(Aminomethyl)-4-((S)-1-(tert-butylsulfonyl)butan-2-yl)-6-(3-chlorophenyl)-5-(4-chlorophenyl)morpholin-3-one hydrochloride and (2S,5R,6R)-2-(aminomethyl)-4-((S)-1-(tert-butylsulfonyl)butan-2-yl)-6-(3-chlorophenyl)-5-(4-chlorophenyl)morpholin-3-one hydrochloride], 142 nM.

Source of the values: US9376425B2, “Heterocyclic compounds as MDM2 inhibitors for the treatment of cancer” (AMGEN INC., priority 2011, dated 2016).
